Legend:
Assay in all cases: In-vitro tumor cell proliferation inhibition, MTT
Type in all cases: cell-based, human
[1] = system: squamous cell carcinoma cell strain A431; conditions: 72 hours
Excerpt: (§1) The object of this assay was to test the inventive compounds for the inhibitory activity of in-vitro tumor cell proliferation. The MTT (tetreamethyl-azo-zole-salt) colorimetric method was used in this assay.
(§2) Human non-small cell lung carcinoma cell strains HCC827, PC-9, H1975 (EGFR L858R/T790M mutation) and H292 (EGFR WT), and other tumor type cell strains, including human acute myelogenous leukemia cell strain MV4-11, human chronic granulocytic leukemia cell strain K562, human squamous cell carcinoma cell strain A431, human breast carcinoma cell strains MDA-MB-468 and BT 474, human colon cancer cell strains SW480, HCT116 and SW620, human liver cancer cell strain Hep G2, human gastric cancer cell strain MK-45, and human malignant melanoma cell strain A375 used in this assay were all purchased from ATCC company, USA and kept in the laboratory. All of the above-mentioned non-small cell lung carcinoma cell strains and the breast carcinoma cell strain BT 474 were cultured with a RPMI-1640 complete culture medium containing 10% fetal bovine serum, 100 U/ml penicillin and 100 μg/ml streptomycin under 5% CO2 and at 37° C. The other cell strains were cultured with a DMEM complete culture medium containing 10% fetal bovine serum (having a MV4-11 cell content of 20%), 100 U/ml penicillin and 100 μg/ml streptomycin under 5% CO2 and 37° C.
(§3) A cell suspension having a cell concentration of 1-2×10^4 cells/ml was treated with a complete cell culture solution to adjust the cell concentration, wherein the cell concentrations for HCC827 and MV4-11 were adjusted to 6×10^4 cells/ml and 1×10^5 cells/ml respectively. The cell suspension was inoculated in a 96-well plate with 200 μl cell suspension/well and cultured overnight. Next day, the supernatant was drawn off and discarded. Then, the cells were treated with the tested compounds in a gradient concentration respectively. In the meanwhile, a negative control group free of the drug substance and an isovolumetric solvent control group (having a DMSO concentration of 1%) were used. The triplicate wells were used for each of dose groups. The culturing was conducted at 37° C. under 5% CO2. After 72 hours, […] having a concentration of 5 mg/ml was added to each of wells. The culturing was further conducted for 2-4 hours. The supernatant was discarded. Then […] was added to each of wells. The contents in the well were mixed homogenously by oscillation for 15 minutes. The absorbance (A) value was measured with a microplate reader at λ=570 nm (the A value is in the direct proportion to the number of living cells) and averaged. The relative cell proliferation inhibitory rate is (A570 control-group−A570 dose-group)/A570 control-group×100%. The assay was repeated for at least three times. The data was expressed as number average. The statistical data were analyzed using t-test. P<0.05 was considered significant. The cell proliferation inhibition of the following compounds was expressed as IC50 or inhibitory rate.

[2] = system: colon cancer cell strain SW620; conditions: 72 hours
Excerpt: as §1, §2, §3

[3] = system: acute myelogenous leukemia cell strain MV4-11; conditions: 72 hours
Excerpt: as §1, §2, §3

[4] = system: breast carcinoma cell strain BT474; conditions: 72 hours
Excerpt: as §1, §2, §3

[5] = system: colon cancer cell strain SW480; conditions: 72 hours
Excerpt: as §1, §2, §3

[6] = system: gastric cancer cell strain MK-45; conditions: 72 hours, read-out: MK45 (IC50)
Excerpt: as §1, §2, §3

[7] = system: colon cancer cell strain HCT116; conditions: 72 hours
Excerpt: as §1, §2, §3

[8] = system: chronic granulocytic leukemia cell strain K562; conditions: 72 hours
Excerpt: as §1, §2, §3

[9] = system: liver cancer cell strain Hep G2; conditions: 72 hours, read-out: HEPG2 (IC50)
Excerpt: as §1, §2, §3

[10] = system: malignant melanoma cell strain A375; conditions: 72 hours
Excerpt: as §1, §2, §3

[11] = system: breast carcinoma cell strain MDA-MB-468; conditions: 72 hours
Excerpt: as §1, §2, §3

[12] = system: non-small cell lung carcinoma cell strain H1975 (EGFR L858R/T790M mutation); conditions: 72 hours
Experimental: as §1
(§4) All of the above-mentioned non-small cell lung carcinoma cell strains and the breast carcinoma cell strain BT 474 were cultured with a RPMI-1640 complete culture medium containing 10% fetal bovine serum, 100 U/ml penicillin and 100 μg/ml streptomycin under 5% CO2 and at 37° C. The other cell strains were cultured with a DMEM complete culture medium containing 10% fetal bovine serum (having a MV4-11 cell content of 20%), 100 U/ml penicillin and 100 μg/ml streptomycin under 5% CO2 and 37° C.
as §3

[13] = system: non-small cell lung carcinoma cell strain HCC827; conditions: 72 hours
Experimental: as §1, §4, §3

[14] = system: non-small cell lung carcinoma cell strain PC-9 (EGFR delE746-A750 deletion mutation); conditions: 72 hours
Experimental: as §1, §4, §3

[15] = system: non-small cell lung carcinoma cell strain H292 (EGFR WT); conditions: 72 hours
Experimental: as §1, §4, §3

SMILES: CN1CCN(c2ccc(Nc3ncc4nc(Nc5cc(F)ccc5F)n(C5CCCC5)c4n3)cc2)CC1 [Compounds 8-55]
- IC50 [1]: 198 nM
- IC50 [2]: 2970 nM
- IC50 [3]: 682 nM
- IC50 [4]: 456 nM
- IC50 [5]: 5320 nM
- IC50 [6]: 1720 nM
- IC50 [7]: 6550 nM
- IC50 [8]: 88 nM
- IC50 [9]: 4680 nM
- IC50 [10]: 2770 nM
- IC50 [11]: 2180 nM
- IC50 [12]: 323 nM
- IC50 [13]: 0.2 nM
- IC50 [14]: 1 nM
- IC50 [15]: > 10000 nM

SMILES: COCCOc1ccc(Nc2ncc3nc(Nc4ccccc4)n(C4CCCC4)c3n2)cc1 [Compounds 8-56]
- IC50 [1]: > 10000 nM
- IC50 [2]: > 10000 nM
- IC50 [3]: 4430 nM
- IC50 [4]: > 10000 nM
- IC50 [5]: > 10000 nM
- IC50 [6]: > 10000 nM
- IC50 [7]: > 10000 nM
- IC50 [8]: > 10000 nM
- IC50 [9]: > 10000 nM
- IC50 [10]: > 10000 nM
- IC50 [11]: > 10000 nM
- IC50 [12]: > 10000 nM
- IC50 [13]: 0.6 nM
- IC50 [14]: 7 nM
- IC50 [15]: 81 nM

SMILES: CN1CCN(c2ccc(Nc3ncc4nc(Nc5cc(Cl)c(Cl)cc5Cl)n(C5CCCC5)c4n3)cc2)CC1 [Compounds 8-57]
- IC50 [1]: 5770 nM
- IC50 [2]: 8370 nM
- IC50 [3]: 6160 nM
- IC50 [4]: > 10000 nM
- IC50 [5]: 9760 nM
- IC50 [6]: 4590 nM
- IC50 [7]: 7860 nM
- IC50 [8]: 352 nM
- IC50 [9]: > 10000 nM
- IC50 [10]: > 10000 nM
- IC50 [11]: > 10000 nM
- IC50 [12]: > 10000 nM
- IC50 [13]: 28 nM
- IC50 [14]: 177 nM
- IC50 [15]: 752 nM

SMILES: CCN1CCN(Cc2ccc(Nc3ncc4nc(Nc5ccccc5)n(C5CCCC5)c4n3)cc2)CC1 [Compounds 8-59]
- IC50 [1]: 497 nM
- IC50 [2]: 1330 nM
- IC50 [3]: 99.8 nM
- IC50 [4]: 1100 nM
- IC50 [5]: 4750 nM
- IC50 [6]: 808 nM
- IC50 [7]: 5720 nM
- IC50 [8]: 111 nM
- IC50 [9]: > 10000 nM
- IC50 [10]: 1200 nM
- IC50 [11]: 6840 nM
- IC50 [12]: 248 nM
- IC50 [13]: 0.2 nM
- IC50 [14]: 2.1 nM
- IC50 [15]: 3.3 nM
